One test concerns the target adenosine A2A receptor (Homo sapiens (Human), UniProt P29274). Description: Adenosine receptor activity assay (Table 1), A2A activity. The class given is biochemical. As to conditions: read-out: Ave A2A cAMP IC50.
The target in another test is adenosine A2B receptor (Homo sapiens (Human), UniProt P29275). Description: Adenosine receptor activity assay (Table 1), A2B activity. The class given is biochemical. As to conditions: for Ratio: A2A activity to A2B activity (A2A/A2B); for IC50: read-out: Ave A2B cAMP IC50.

SMILES strings stand for the structures.

Usually IC50 stands for the concentration needed to halve the response being measured.

Sequence of adenosine A2A receptor (P29274 whole entry): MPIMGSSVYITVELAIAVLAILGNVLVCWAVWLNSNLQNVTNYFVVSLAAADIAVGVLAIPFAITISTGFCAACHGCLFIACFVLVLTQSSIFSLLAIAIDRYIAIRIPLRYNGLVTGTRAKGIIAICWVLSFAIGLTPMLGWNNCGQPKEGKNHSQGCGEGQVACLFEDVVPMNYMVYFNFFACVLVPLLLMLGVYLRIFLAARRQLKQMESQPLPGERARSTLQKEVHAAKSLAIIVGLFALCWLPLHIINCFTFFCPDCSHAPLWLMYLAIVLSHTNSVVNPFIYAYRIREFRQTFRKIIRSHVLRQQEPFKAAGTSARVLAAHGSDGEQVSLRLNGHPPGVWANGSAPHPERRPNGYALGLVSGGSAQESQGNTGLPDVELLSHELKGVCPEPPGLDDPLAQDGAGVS
Sequence of adenosine A2B receptor (P29275 whole entry): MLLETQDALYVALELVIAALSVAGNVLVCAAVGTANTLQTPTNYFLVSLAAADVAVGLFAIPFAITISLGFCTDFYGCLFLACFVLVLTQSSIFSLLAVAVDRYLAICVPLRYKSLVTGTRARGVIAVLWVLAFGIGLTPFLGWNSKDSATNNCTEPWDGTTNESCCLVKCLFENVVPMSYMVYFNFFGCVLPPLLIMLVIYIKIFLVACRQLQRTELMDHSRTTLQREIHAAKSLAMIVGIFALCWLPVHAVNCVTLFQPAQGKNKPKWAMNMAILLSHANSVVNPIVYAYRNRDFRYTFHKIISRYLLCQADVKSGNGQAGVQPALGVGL

Turning to `O=C(c1nc(NCc2cnccn2)nc2ccsc12)N1CCC1` [Example Z155, Azetidin-1-yl(2-((pyrazin-2-ylmethyl)amino)thieno[3,2-d]pyrimidin-4-yl)methanone], the IC50 on adenosine A2A receptor was greater than 500 nM. Also, at adenosine A2B receptor, the Ratio is 18.83 and the IC50 lay within 50 to 100 nM.

For the compound `O=C(c1nc(NCc2cnccn2)nc2ccsc12)N1CC[C@H](O)C1` [Example Z156, (S)-(3-Hydroxypyrrolidin-1-yl)(2-((pyrazin-2-ylmethyl)amino)thieno[3,2-d]pyrimidin-4-yl)methanone], at adenosine A2A receptor, the IC50 was greater than 500 nM. Besides, at adenosine A2B receptor, the Ratio amounted to 14.60 and the IC50 was greater than 500 nM.

Take `COCCNC(=O)c1nc(NCc2cnccn2)nc2ccsc12` [Example Z157, N-(2-Methoxyethyl)-2-((pyrazin-2-ylmethyl)amino)thieno[3,2-d]pyrimidine-4-carboxamide]: on adenosine A2A receptor, the IC50 is greater than 500 nM. For the same compound, on adenosine A2B receptor, the Ratio was 3.17 and the IC50 was greater than 500 nM.

As to `O=C(c1nc(NCc2cc(F)cc(F)c2)nc2ccsc12)N1CCC1` [Example Z168, Azetidin-1-yl(2-((3,5-difluorobenzyl)amino)thieno[3,2-d]pyrimidin-4-yl)methanone], the results for the IC50 at adenosine A2A receptor and at adenosine A2B receptor were 100 to 500 nM and 10 to 50 nM, respectively. Also, the Ratio on adenosine A2B receptor worked out at 36.14.

On to `CC(C)(C)OC(=O)N1CC(NC(=O)c2nc(NCc3cncc(F)c3)nc3ccsc23)C1` [Example Z178, tert-Butyl 3-(2-(((5-fluoropyridin-3-yl)methyl)amino)thieno[3,2-d]pyrimidine-4-carboxamido)azetidine-1-carboxylate], for which, on adenosine A2A receptor, the IC50 is 100 to 500 nM. In addition, at adenosine A2B receptor, the Ratio came out at 3.76 and the IC50 is 100 to 500 nM.

As for `C[C@H](Nc1nc(C(=O)NC2CN(C(=O)OC(C)(C)C)C2)c2sccc2n1)c1ccccn1` [Example Z179, tert-Butyl (S)-3-(2-((1-(pyridin-2-yl)ethyl)amino)thieno[3,2-d]pyrimidine-4-carboxamido)azetidine-1-carboxylate], the IC50 on adenosine A2A receptor was 50 to 100 nM. Further, at adenosine A2B receptor, the Ratio stood at 1.09 and the half-maximal inhibitory concentration (IC50) fell in the range of 50 to 100 nM.

For the compound `C[C@H](Nc1nc(C(=O)N[C@@H](C)CO)c2sccc2n1)c1ccccn1` [Example Z181, N—((S)-1-Hydroxypropan-2-yl)-2-(((S)-1-(pyridin-2-yl)ethyl)amino)thieno[3,2-d]pyrimidine-4-carboxamide], the IC50 on adenosine A2A receptor fell in the range of 100 to 500 nM. In addition, at adenosine A2B receptor, the Ratio worked out at 5.43 and the IC50 fell in the range of 50 to 100 nM.

Turning to `C[C@H](CO)NC(=O)c1nc(N[C@@H](C)c2ccccn2)nc2ccsc12` [Example Z182, N—((R)-1-Hydroxypropan-2-yl)-2-(((S)-1-(pyridin-2-yl)ethyl)amino)thieno[3,2-d]pyrimidine-4-carboxamide], the IC50 on adenosine A2A receptor lay in the range of 100 to 500 nM; at adenosine A2B receptor it was 50 to 100 nM. For the same compound, the Ratio at adenosine A2B receptor is 5.92.

As for `Nc1cc2nc(NCc3cccnc3)nc(C(=O)N3CCCC3)c2s1` [Example Z186, (6-Amino-2-((pyridin-3-ylmethyl)amino)thieno[3,2-d]pyrimidin-4-yl)(pyrrolidin-1-yl)methanone], at adenosine A2A receptor, the IC50 is greater than 500 nM. Further, at adenosine A2B receptor, the Ratio came out at 29.35 and the IC50 was 50 to 100 nM.

Regarding `C[C@H](Nc1nc(C(=O)NCC2CCC2)c2sccc2n1)c1ccccn1` [Example Z193, (S)—N-(Cyclobutylmethyl)-2-((1-(pyridin-2-yl)ethyl)amino)thieno[3,2-d]pyrimidine-4-carboxamide], the IC50 on adenosine A2A receptor was 50 to 100 nM. Moreover, on adenosine A2B receptor, the Ratio is 4.46 and the IC50 was 10 to 50 nM.

For `C[C@H](Nc1nc(C(=O)NC2COC2)c2sccc2n1)c1ccccn1` [Example Z194, (S)—N-(Oxetan-3-yl)-2-((1-(pyridin-2-yl)ethyl)amino)thieno[3,2-d]pyrimidine-4-carboxamide], the IC50 on adenosine A2A receptor is 100 to 500 nM. On adenosine A2B receptor, the Ratio amounted to 5.79 and the IC50 was in the range of 10 to 50 nM.

On to `C[C@H](Nc1nc(C(=O)N2CC[C@@H](F)C2)c2sc(N)cc2n1)c1cccnc1` [Example Z195, (6-Amino-2-(((S)-1-(pyridin-3-yl)ethyl)amino)thieno[3,2-d]pyrimidin-4-yl)((R)-3-fluoropyrrolidin-1-yl)methanone], for which, at adenosine A2A receptor, the IC50 lay in the range of 100 to 500 nM. Also, at adenosine A2B receptor, the Ratio was 17.59 and the IC50 was 10 to 50 nM.

With `C[C@H](Nc1nc(C(=O)N2CC[C@H](O)C2)c2sc(N)cc2n1)c1cccnc1` [Example Z196, (6-Amino-2-(((S)-1-(pyridin-3-yl)ethyl)amino)thieno[3,2-d]pyrimidin-4-yl)((S)-3-hydroxypyrrolidin-1-yl)methanone], the IC50 on adenosine A2A receptor was greater than 500 nM. On adenosine A2B receptor, the Ratio was found to be 102.27 and the IC50 fell in the range of 10 to 50 nM.

With `C[C@H](Nc1nc(C(=O)NCc2cncc(C(F)(F)F)c2)c2sccc2n1)c1ccccn1` [Example Z200, (S)-2-((1-(Pyridin-2-yl)ethyl)amino)-N-((5-(trifluoromethyl)pyridin-3-yl)methyl)thieno[3,2-d]pyrimidine-4-carboxamide], the IC50 on adenosine A2A receptor fell in the range of 100 to 500 nM. At adenosine A2B receptor, the Ratio came to 1.81 and the IC50 lay in the range of 100 to 500 nM.

Turning to `COCC(Nc1nc(C(=O)NC2CC2)c2sccc2n1)c1cccnc1` (stereo not drawn) [Example Z202, N-Cyclopropyl-2-((2-methoxy-1-(pyridin-3-yl)ethyl)amino)thieno[3,2-d]pyrimidine-4-carboxamide], on adenosine A2A receptor, the IC50 was 50 to 100 nM. In addition, on adenosine A2B receptor, the Ratio is on record as 3.91 and the IC50 is 10 to 50 nM.

For the compound `C[C@H](Nc1nc(C(=O)N2CCC2)c2sc(N)cc2n1)c1cccnc1` [Example Z203, (S)-(6-Amino-2-((1-(pyridin-3-yl)ethyl)amino)thieno[3,2-d]pyrimidin-4-yl)(azetidin-1-yl)methanone], the IC50 on adenosine A2A receptor was in the range of 100 to 500 nM. Further, at adenosine A2B receptor, the Ratio amounted to 33.74 and the IC50 was 10 to 50 nM.

Regarding `C[C@H](Nc1nc(C(=O)N2CC[C@H](F)C2)c2sc(N)cc2n1)c1cccnc1` [Example Z204, (6-Amino-2-(((S)-1-(pyridin-3-yl)ethyl)amino)thieno[3,2-d]pyrimidin-4-yl)((S)-3-fluoropyrrolidin-1-yl)methanone], on adenosine A2A receptor, the IC50 lay within 100 to 500 nM. Moreover, on adenosine A2B receptor, the Ratio was determined as 13.13 and the IC50 lay in the range of 10 to 50 nM.

`C[C@H](Nc1nc(C(=O)N2CC(O)C2)c2sc(N)cc2n1)c1ccccn1` [Example Z205, (S)-(6-Amino-2-((1-(pyridin-2-yl)ethyl)amino)thieno[3,2-d]pyrimidin-4-yl)(3-hydroxyazetidin-1-yl)methanone]: the IC50 at adenosine A2A receptor was 100 to 500 nM; at adenosine A2B receptor, 10 to 50 nM. Also, the Ratio on adenosine A2B receptor was 27.10.

Regarding `C[C@@H]1CCN(C(=O)c2nc(N[C@@H](C)c3ccccn3)nc3cc(N)sc23)C1` [Example Z206, (6-Amino-2-(((S)-1-(pyridin-2-yl)ethyl)amino)thieno[3,2-d]pyrimidin-4-yl)((R)-3-methylpyrrolidin-1-yl)methanone], the IC50 on adenosine A2A receptor was 100 to 500 nM. At adenosine A2B receptor, the Ratio is 8.53 and the IC50 lay within 10 to 50 nM.

On to `CNc1cc2nc(N[C@@H](C)c3ccccn3)nc(C(=O)N3CC[C@@H](C)C3)c2s1` [Example Z207, (6-(Methylamino)-2-(((S)-1-(pyridin-2-yl)ethyl)amino)thieno[3,2-d]pyrimidin-4-yl)((R)-3-methylpyrrolidin-1-yl)methanone], for which the IC50 at adenosine A2A receptor was in the range of 100 to 500 nM; on adenosine A2B receptor, 10 to 50 nM. For the same compound, the Ratio on adenosine A2B receptor is given as 14.35.

Turning to `C[C@H](Nc1nc(C(=O)N2CC[C@@H](O)C2)c2sc(N)cc2n1)c1ccccn1` [Example Z208, (6-Amino-2-(((S)-1-(pyridin-2-yl)ethyl)amino)thieno[3,2-d]pyrimidin-4-yl)((R)-3-hydroxypyrrolidin-1-yl)methanone], the IC50 on adenosine A2A receptor is greater than 500 nM. Also, at adenosine A2B receptor, the Ratio turned out to be 18.79 and the IC50 was in the range of 50 to 100 nM.

For `C[C@H](Nc1nc(C(=O)NCCO)c2sc(N)cc2n1)c1ccccn1` [Example Z209, (S)-6-Amino-N-(2-hydroxyethyl)-2-((1-(pyridin-2-yl)ethyl)amino)thieno[3,2-d]pyrimidine-4-carboxamide], the IC50 on adenosine A2A receptor was greater than 500 nM. Besides, at adenosine A2B receptor, the Ratio was found to be 30.22 and the IC50 was in the range of 10 to 50 nM.

Regarding `CCc1cc2nc(N[C@@H](C)c3cccnc3)nc(C(=O)N3CCCC3)c2s1` [Example Z214, (S)-(6-Ethyl-2-((1-(pyridin-3-yl)ethyl)amino)thieno[3,2-d]pyrimidin-4-yl)(pyrrolidin-1-yl)methanone], the IC50 on adenosine A2A receptor is greater than 500 nM. On adenosine A2B receptor, the Ratio came out at 6.84 and the IC50 was 100 to 500 nM.

In the case of `C[C@H](Nc1nc(C(=O)NCCS(C)(=O)=O)c2sccc2n1)c1ccccn1` [Example Z215, (S)—N-(2-(Methylsulfonyl)ethyl)-2-((1-(pyridin-2-yl)ethyl)amino)thieno[3,2-d]pyrimidine-4-carboxamide], the IC50 on adenosine A2A receptor lay within 100 to 500 nM. Besides, at adenosine A2B receptor, the Ratio is given as 2.95 and the IC50 was 100 to 500 nM.

As for `COCC(Nc1nc(C(=O)NC2COC2)c2sccc2n1)c1cccnc1` (stereo not drawn) [Example Z216, 2-((2-Methoxy-1-(pyridin-3-yl)ethyl)amino)-N-(oxetan-3-yl)thieno[3,2-d]pyrimidine-4-carboxamide], the IC50 at adenosine A2A receptor was in the range of 100 to 500 nM. On adenosine A2B receptor, the Ratio was 5.35 and the IC50 lay in the range of 10 to 50 nM.

On to `COCC(Nc1nc(C(=O)N2CC(OC)C2)c2sccc2n1)c1cccnc1` (stereo not drawn) [Example Z217, (2-((2-Methoxy-1-(pyridin-3-yl)ethyl)amino)thieno[3,2-d]pyrimidin-4-yl)(3-methoxyazetidin-1-yl)methanone], for which, at adenosine A2A receptor, the IC50 lay within 50 to 100 nM. For the same compound, at adenosine A2B receptor, the Ratio came out at 5.70 and the IC50 fell in the range of 10 to 50 nM.

Turning to `COCC(Nc1nc(C(=O)N[C@H]2C[C@@H](O)C2)c2sccc2n1)c1cccnc1` (stereo partly drawn) [Example Z218, N-((1s,3s)-3-Hydroxycyclobutyl)-2-((2-methoxy-1-(pyridin-3-yl)ethyl)amino)thieno[3,2-d]pyrimidine-4-carboxamide], the IC50 on adenosine A2A receptor was in the range of 100 to 500 nM. On adenosine A2B receptor, the Ratio came to 8.99 and the IC50 fell in the range of 10 to 50 nM.

Source of the values: patent US11254686B1 (Corvus Pharmaceuticals, Inc., priority 2017, dated 2022).
